Data: publication PMC6556873, “Rapid Covalent-Probe Discovery by Electrophile-Fragment Screening” (Journal of the American Chemical Society, 2019)
Like-named read-outs stand apart in the source and are kept apart here.

Legend:
[1] = in vitro; design: species or system HB2, HEK293; conditions: human, ccd841 cells
[2] = biological target: T1, OTUB2 (OTUB2A) (Homo sapiens, UniProt Q96DC9); design: Intact protein LC/MS covalent labelling, fragments in pools of five, 200 uM each, 4 °C; conditions: 24 h, 4 °C, pool of five; 200 µM; covalent
T1 construct: full length residues 1-234, E. coli BL21(DE3)-R3, His tag removed by TEV, construct 27312 Da
T1 sequence (Q96DC9 1-234): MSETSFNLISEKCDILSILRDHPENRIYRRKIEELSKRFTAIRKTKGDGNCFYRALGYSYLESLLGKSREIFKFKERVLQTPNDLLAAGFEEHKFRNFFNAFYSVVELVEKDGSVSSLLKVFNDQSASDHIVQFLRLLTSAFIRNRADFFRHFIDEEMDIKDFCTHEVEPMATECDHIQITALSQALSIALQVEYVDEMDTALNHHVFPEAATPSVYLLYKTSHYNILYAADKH

[3] = biological target: T2, PCAF (Homo sapiens, UniProt Q92831); design: Intact protein LC/MS covalent labelling, fragments in pools of five, 200 uM each, 4 °C; conditions: 24 h, 4 °C, pool of five; 200 µM; covalent
T2 construct: gene KAT2B
T2 sequence (Q92831 whole entry, the tested form may be a part): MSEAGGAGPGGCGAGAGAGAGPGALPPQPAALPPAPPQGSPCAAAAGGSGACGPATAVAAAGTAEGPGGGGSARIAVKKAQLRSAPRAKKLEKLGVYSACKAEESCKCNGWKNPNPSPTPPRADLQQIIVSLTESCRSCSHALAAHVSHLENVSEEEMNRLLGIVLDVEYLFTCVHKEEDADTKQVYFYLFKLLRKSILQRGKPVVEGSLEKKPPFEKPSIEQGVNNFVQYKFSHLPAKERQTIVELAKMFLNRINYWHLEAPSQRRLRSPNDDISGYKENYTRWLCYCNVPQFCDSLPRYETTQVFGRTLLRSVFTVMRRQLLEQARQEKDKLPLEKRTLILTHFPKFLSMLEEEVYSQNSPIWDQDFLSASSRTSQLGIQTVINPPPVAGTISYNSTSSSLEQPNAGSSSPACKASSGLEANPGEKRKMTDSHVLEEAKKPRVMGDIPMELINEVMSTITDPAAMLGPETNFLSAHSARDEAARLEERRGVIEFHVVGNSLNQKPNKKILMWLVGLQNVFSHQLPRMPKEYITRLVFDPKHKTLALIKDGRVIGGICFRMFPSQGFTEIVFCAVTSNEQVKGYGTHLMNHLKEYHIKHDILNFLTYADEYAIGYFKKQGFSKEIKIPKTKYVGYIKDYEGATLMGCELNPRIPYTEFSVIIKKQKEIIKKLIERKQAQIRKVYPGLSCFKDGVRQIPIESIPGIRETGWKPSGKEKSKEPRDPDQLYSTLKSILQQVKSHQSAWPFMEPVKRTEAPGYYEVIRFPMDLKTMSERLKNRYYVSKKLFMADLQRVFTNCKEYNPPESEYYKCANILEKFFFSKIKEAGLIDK

[4] = biological target: T3, NNMT (hNNMT) (Homo sapiens, UniProt P40261); design: Intact protein LC/MS covalent labelling, fragments in pools of five, 200 uM each, 4 °C; conditions: 24 h, 4 °C, pool of five; 200 µM; covalent
T3 construct: wild type, N-terminal His6 tag kept (no cleavage described), E. coli, construct 31248 Da
T3 sequence (P40261 1-264): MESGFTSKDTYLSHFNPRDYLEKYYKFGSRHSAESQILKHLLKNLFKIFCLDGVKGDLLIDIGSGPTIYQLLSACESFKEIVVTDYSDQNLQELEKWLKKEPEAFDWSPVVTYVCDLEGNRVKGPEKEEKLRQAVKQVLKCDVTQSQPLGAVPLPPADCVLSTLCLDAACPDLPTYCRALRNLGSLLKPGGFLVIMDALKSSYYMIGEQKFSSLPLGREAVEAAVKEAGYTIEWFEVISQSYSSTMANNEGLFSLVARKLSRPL

[5] = biological target: T4, NUDT7 (Homo sapiens, UniProt P0C024); design: Intact protein LC/MS covalent labelling, fragments in pools of five, 200 uM each, 4 °C; conditions: 24 h, 4 °C, pool of five; 200 µM; covalent
T4 construct: residues 14-235, E. coli, pNIC28-Bsa4, N-terminal His6 tag removed by TEV, construct 26672 Da
T4 sequence (P0C024 14-235): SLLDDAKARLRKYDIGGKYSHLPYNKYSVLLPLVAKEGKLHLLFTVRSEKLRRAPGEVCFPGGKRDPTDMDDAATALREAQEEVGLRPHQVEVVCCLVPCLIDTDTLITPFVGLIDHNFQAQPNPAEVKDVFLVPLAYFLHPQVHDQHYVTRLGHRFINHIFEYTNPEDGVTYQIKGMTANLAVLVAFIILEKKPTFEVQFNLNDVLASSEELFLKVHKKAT

[6] = biological target: T5, BSA (Bos taurus, UniProt P02769); design: Intact protein LC/MS covalent labelling, fragments in pools of five, 200 uM each, 4 °C; conditions: 24 h, 4 °C, pool of five; 200 µM; covalent
T5 construct: gene ALB
T5 sequence (P02769 whole entry, the tested form may be a part): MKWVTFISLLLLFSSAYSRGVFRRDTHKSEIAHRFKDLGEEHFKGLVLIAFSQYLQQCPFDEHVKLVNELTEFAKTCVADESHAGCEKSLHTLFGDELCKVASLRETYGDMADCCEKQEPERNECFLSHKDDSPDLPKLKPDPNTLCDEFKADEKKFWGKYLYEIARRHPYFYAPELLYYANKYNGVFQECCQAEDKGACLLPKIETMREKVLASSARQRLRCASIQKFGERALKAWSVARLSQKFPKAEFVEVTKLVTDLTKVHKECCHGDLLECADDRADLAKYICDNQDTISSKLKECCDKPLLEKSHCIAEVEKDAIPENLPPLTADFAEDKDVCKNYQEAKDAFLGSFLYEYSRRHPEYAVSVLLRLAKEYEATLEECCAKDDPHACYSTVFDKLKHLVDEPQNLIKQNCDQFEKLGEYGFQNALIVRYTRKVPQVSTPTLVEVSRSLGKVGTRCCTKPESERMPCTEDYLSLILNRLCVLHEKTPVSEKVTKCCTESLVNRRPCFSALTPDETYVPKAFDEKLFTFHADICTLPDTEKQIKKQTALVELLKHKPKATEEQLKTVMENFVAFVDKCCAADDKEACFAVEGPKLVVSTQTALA

[7] = in vitro; design: species or system HB2, CCD841; conditions: human, hek293 cells
[8] = in vitro; design: species or system CCD841, HEK293; conditions: human, hb2 cells, read-out: HB-2 Cells Viability (%)

SMILES | viability at 48 h, 10 µM [1] [%] | OTUB2 [2] | PCAF [3] | NNMT [4] | NUDT7 [5] | BSA [6] | viability at 48 h, 10 µM [7] [%] | viability at 48 h, 10 µM [8] [%]
O=C(CCl)N1CCN(Cc2ccc3c(c2)OCCO3)CC1 [PCM-0102386] | 75.9 | 0 | 0 | 0 | 0 | 0 | 39.1 | 42.2
C=CC(=O)NCc1cc(F)c(C(F)(F)F)cc1F [PCM-0103078] | 96.9 | 0 | 0 | 0.2 | 0 | 0 | 88.4 | 101
O=C(CCl)N1CCC(C(=O)N2CCCCCC2)CC1 [PCM-0102781] | 92.5 | 0 | 0 | 0 | 0 | 0 | 63.8 | 90.6
O=C(CCl)N1CCC(C(=O)N2CCCCC2)CC1 [PCM-0102972] | 106 | 0.08 | 0 | 0 | 0 | 0 | 76.6 | 84.6
N#Cc1cccc(CNC(=O)CCl)c1 [PCM-0102936] | 94.9 | 0.32 | 0 | 0 | 0 | 0 | 83.1 | 97.1
O=C(CCl)Nc1nnc(CC(F)(F)F)o1 [PCM-0102779] | 99.9 | 0 | 0 | 0.24 | 0 | 0 | 102 | 106
Cl.O=C(CCl)N1CCN(Cc2ccc3c(c2)OCO3)CC1 [PCM-0102397] | 67.3 | 0 | 0 | 0 | 0 | 0 | 31.7 | 20.7
O=C(CCl)NC1CCN(C(=O)C2CCCCC2)CC1 [PCM-0102931] | 78.6 | 0.09 | 0 | 0 | 0 | 0 | 118 | 82.9
CCOC(=O)N1CCC(NC(=O)CCl)CC1 [PCM-0102255] | 61.3 | 0.24 | 0 | 0.23 | 0 | 0 | 74.2 | 61.8
O=C(CCl)NCc1cc(Br)cs1 [PCM-0103050] | 75.7 | 0.84 | 0 | 0 | 0.13 | 0 | 53.1 | 87
Cc1cc(CNC(=O)CCl)cc(C)c1O [PCM-0102431] | 96.3 | 0.64 | 0 | 0 | 0 | 0 | 84.6 | 85.7
CC(C)C(C)(C#N)NC(=O)CCl (stereo not shown) [PCM-0102626] | 82.1 | 0 | 0 | 0 | 0 | 0 | 89.9 | 96.4
NS(=O)(=O)c1ccccc1NC(=O)CCl [PCM-0102903] | 55.2 | 0.14 | 0 | 0 | 0.29 | 0 | 69.7 | 65.4
C=CC(=O)N1CC(C)(C)C1c1cccs1 (stereo not shown) [PCM-0102611] | 95.8 | 0 | 0 | 0 | 0 | 0 | 71.3 | 107
CNC(=O)c1ccc(NC(=O)CCl)cc1 [PCM-0102267] | 32.5 | 0 | 0 | 0 | 0 | 0 | 2.2 | 20
N#CC1(NC(=O)CCl)CCC1 [PCM-0102854] | 81.1 | 0 | 0 | 0 | 0.09 | 0 | 93.1 | 90
C=CC(=O)NCC1CCC2(CCOCC2)C1O (stereo not shown) [PCM-0102569] | 110 | 0 | 0 | 0.36 | 0.11 | 0 | 84.7 | 110
O=C(CCl)N1Cc2ccccc2C(c2ccccc2)C1 (stereo not shown) [PCM-0102432] | 12.4 | 0.17 | 0 | 0.65 | 0.33 | 0 | 20.6 | 38.2
CC1CCC2(CC1)NC(=O)N(NC(=O)CCl)C2=O (stereo not shown) [PCM-0102666] | 79.9 | 0 | 0 | 0 | 0 | 0 | 99.9 | 97.3
C=CC(=O)Nc1cc(F)ccc1C [PCM-0102917] | 106 | 0 | 0 | 0 | 0 | 0 | 76.3 | 103
